{"source": "ChEMBL document CHEMBL1201862", "about": "“PubChem BioAssay data set” (2004)", "test_in_all_cases": "DTP human tumour cell line panel, 48 h", "key": {"OVCAR-3": {"test_system": "OVCAR-3"}, "SR": {"test_system": "SR"}, "NCI-H23": {"test_system": "NCI-H23"}, "UO-31": {"test_system": "UO-31"}, "SK-MEL-5": {"test_system": "SK-MEL-5"}, "K562": {"test_system": "K562"}, "MCF7": {"test_system": "MCF7"}, "NCI-H522": {"test_system": "NCI-H522"}, "BT-549": {"test_system": "BT-549"}, "HOP-62": {"test_system": "HOP-62"}, "SK-MEL-2": {"test_system": "SK-MEL-2"}, "LOX IMVI": {"test_system": "LOX IMVI"}, "SF-295": {"test_system": "SF-295"}, "SF-268": {"test_system": "SF-268"}, "IGROV-1": {"test_system": "IGROV-1"}, "UACC-257": {"test_system": "UACC-257"}, "KM12": {"test_system": "KM12"}, "SNB-75": {"test_system": "SNB-75"}, "SK-OV-3": {"test_system": "SK-OV-3"}, "MOLT-4": {"test_system": "MOLT-4"}, "NCI-H460": {"test_system": "NCI-H460"}, "COLO 205": {"test_system": "COLO 205"}, "786-0": {"test_system": "786-0"}, "ACHN": {"test_system": "ACHN"}, "SK-MEL-28": {"test_system": "SK-MEL-28"}, "RPMI-8226": {"test_system": "RPMI-8226"}, "CAKI-1": {"test_system": "CAKI-1"}, "CCRF-CEM": {"test_system": "CCRF-CEM"}, "HOP-92": {"test_system": "HOP-92"}, "NCI/ADR-RES": {"test_system": "NCI/ADR-RES"}, "NCI-H226": {"test_system": "NCI-H226"}, "SW-620": {"test_system": "SW-620"}, "HL-60": {"test_system": "HL-60"}, "UACC-62": {"test_system": "UACC-62"}, "A549": {"test_system": "A549"}, "SNB-19": {"test_system": "SNB-19"}, "SN12C": {"test_system": "SN12C"}, "HCT-15": {"test_system": "HCT-15"}, "MDA-MB-435": {"test_system": "MDA-MB-435"}, "OVCAR-5": {"test_system": "OVCAR-5"}, "Malme-3M": {"test_system": "Malme-3M"}, "OVCAR-8": {"test_system": "OVCAR-8"}, "TK-10": {"test_system": "TK-10"}, "T47D": {"test_system": "T47D"}, "M14": {"test_system": "M14"}, "PC-3": {"test_system": "PC-3"}, "OVCAR-4": {"test_system": "OVCAR-4"}, "EKVX": {"test_system": "EKVX"}, "Hs-578T": {"test_system": "Hs-578T"}, "U-251": {"test_system": "U-251"}, "HT-29": {"test_system": "HT-29"}, "A498": {"test_system": "A498"}, "SF-539": {"test_system": "SF-539"}, "HCC 2998": {"test_system": "HCC 2998"}, "RXF 393": {"test_system": "RXF 393"}, "DU-145": {"test_system": "DU-145"}}, "note": "Where “and” joins values, the source holds several entries; their conditions need not be identical. Identical values can stand only once.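 Cells were grown in 96-well plates and exposed to each compound for 48 hours at five concentrations; endpoints were interpolated linearly between bracketing concentrations, or set to the highest concentration if not reached. The concentration for 50% growth inhibition is given as GI50.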 Calls of active or inactive are those of the source. No stated cut-off is given here; in the data, active = GI50 up to about 1.1 µM and inactive = higher. Starred links: 1 amine or outer side, 2 acyl side, 3 side chain; linkers in the order of their positions; H or OH if unused. Positions of bridges follow the written chain, without caps; N, C: chain ends. Non-standard residues stand in square brackets, D forms with d. Residues, ends and D or L forms follow the SMILES beside them. Chains are numbered I, II in the order given. Actinocin(9to1) = Cc1c2oc3c(C)ccc(C(=O)[*:1])c3nc-2c(C(=O)[*:2])c(N)c1=O; NMeF = CN[CH](Cc1ccccc1)C(=O)O; Sar = CNCC(=O)O"}
{"molecule": "CC12CCC(CC1(Cl)Cl)C2", "note": "(stereo not drawn)", "values": [{"measurement": "GI50", "setting": "OVCAR-3", "result": "> 100 µM (inactive)"}, {"measurement": "GI50", "setting": "SR", "result": "> 100 µM (inactive)"}, {"measurement": "GI50", "setting": "NCI-H23", "result": "> 100 µM (inactive)"}, {"measurement": "GI50", "setting": "UO-31", "result": "> 100 µM (inactive)"}, {"measurement": "GI50", "setting": "SK-MEL-5", "result": "> 100 µM (inactive)"}, {"measurement": "GI50", "setting": "K562", "result": "> 100 µM (inactive)"}, {"measurement": "GI50", "setting": "MCF7", "result": "> 100 µM (inactive)"}, {"measurement": "GI50", "setting": "NCI-H522", "result": "> 100 µM (inactive)"}, {"measurement": "GI50", "setting": "BT-549", "result": "> 100 µM (inactive)"}, {"measurement": "GI50", "setting": "HOP-62", "result": "> 100 µM (inactive)"}, {"measurement": "GI50", "setting": "SK-MEL-2", "result": "> 100 µM (inactive)"}, {"measurement": "GI50", "setting": "LOX IMVI", "result": "> 100 µM (inactive)"}, {"measurement": "GI50", "setting": "SF-295", "result": "> 100 µM (inactive)"}, {"measurement": "GI50", "setting": "SF-268", "result": "> 100 µM (inactive)"}, {"measurement": "GI50", "setting": "IGROV-1", "result": "> 100 µM (inactive)"}, {"measurement": "GI50", "setting": "UACC-257", "result": "> 100 µM (inactive)"}, {"measurement": "GI50", "setting": "KM12", "result": "> 100 µM (inactive)"}, {"measurement": "GI50", "setting": "SNB-75", "result": "> 100 µM (inactive)"}, {"measurement": "GI50", "setting": "SK-OV-3", "result": "> 100 µM (inactive)"}, {"measurement": "GI50", "setting": "MOLT-4", "result": "> 100 µM (inactive)"}, {"measurement": "GI50", "setting": "NCI-H460", "result": "> 100 µM (inactive)"}, {"measurement": "GI50", "setting": "COLO 205", "result": "> 100 µM (inactive)"}, {"measurement": "GI50", "setting": "786-0", "result": "> 100 µM (inactive)"}, {"measurement": "GI50", "setting": "ACHN", "result": "> 100 µM (inactive)"}, {"measurement": "GI50", "setting": "SK-MEL-28", "result": "> 100 µM (inactive)"}, {"measurement": "GI50", "setting": "RPMI-8226", "result": "> 100 µM (inactive)"}, {"measurement": "GI50", "setting": "CAKI-1", "result": "> 100 µM (inactive)"}, {"measurement": "GI50", "setting": "CCRF-CEM", "result": "> 100 µM (inactive)"}, {"measurement": "GI50", "setting": "HOP-92", "result": "> 100 µM (inactive)"}, {"measurement": "GI50", "setting": "NCI/ADR-RES", "result": "> 100 µM (inactive)"}, {"measurement": "GI50", "setting": "NCI-H226", "result": "> 100 µM (inactive)"}, {"measurement": "GI50", "setting": "SW-620", "result": "> 100 µM (inactive)"}, {"measurement": "GI50", "setting": "HL-60", "result": "> 100 µM (inactive)"}, {"measurement": "GI50", "setting": "UACC-62", "result": "> 100 µM (inactive)"}, {"measurement": "GI50", "setting": "A549", "result": "> 100 µM (inactive)"}, {"measurement": "GI50", "setting": "SNB-19", "result": "> 100 µM (inactive)"}, {"measurement": "GI50", "setting": "SN12C", "result": "> 100 µM (inactive)"}, {"measurement": "GI50", "setting": "HCT-15", "result": "> 100", "unit": "µM"}, {"measurement": "GI50", "setting": "MDA-MB-435", "result": "> 100 µM (inactive)"}, {"measurement": "GI50", "setting": "OVCAR-5", "result": "> 100 µM (inactive)"}, {"measurement": "GI50", "setting": "Malme-3M", "result": "> 100 µM (inactive)"}, {"measurement": "GI50", "setting": "OVCAR-8", "result": "> 100 µM (inactive)"}, {"measurement": "GI50", "setting": "TK-10", "result": "> 100 µM (inactive)"}, {"measurement": "GI50", "setting": "T47D", "result": "> 100 µM (inactive)"}, {"measurement": "GI50", "setting": "M14", "result": "> 100 µM (inactive)"}, {"measurement": "GI50", "setting": "PC-3", "result": "> 100 µM (inactive)"}, {"measurement": "GI50", "setting": "OVCAR-4", "result": "> 100 µM (inactive)"}, {"measurement": "GI50", "setting": "EKVX", "result": "> 100 µM (inactive)"}, {"measurement": "GI50", "setting": "Hs-578T", "result": "> 100 µM (inactive)"}, {"measurement": "GI50", "setting": "U-251", "result": "> 100 µM (inactive)"}, {"measurement": "GI50", "setting": "HT-29", "result": "> 100 µM (inactive)"}]}
{"molecule": "Cc1c2oc3c(C)ccc(C(=O)NC4C(=O)NC(C(C)C)C(=O)N5CCCC5C(=O)N(C)CC(=O)N(C)C(Cc5ccccc5)C(=O)OC4C)c3nc-2c(C(=O)NC2C(=O)NC(C(C)C)C(=O)N3CCCC3C(=O)N(C)CC(=O)N(C)C(Cc3ccccc3)C(=O)OC2C)c(N)c1=O", "note": "(stereo not drawn) (I: TVP[Sar][NMeF] / II: TVP[Sar][NMeF]; ester I:1-I:C, II:1-II:C; linker I:N-II:N via Actinocin(9to1); configuration not given here)", "values": [{"measurement": "GI50", "setting": "A498", "result": "0.0108 µM (active)"}, {"measurement": "GI50", "setting": "OVCAR-3", "result": "< 10 nM (active) and 12.9 nM (active)"}, {"measurement": "GI50", "setting": "NCI-H23", "result": "< 10 nM (active) and < 11.1 nM (active)"}, {"measurement": "GI50", "setting": "SK-MEL-5", "result": "< 10 nM (active) and 6 nM (active)"}, {"measurement": "GI50", "setting": "SF-539", "result": "< 10 nM (active) and 5.64 nM (active)"}, {"measurement": "GI50", "setting": "BT-549", "result": "0.0189 µM (active)"}, {"measurement": "GI50", "setting": "HOP-62", "result": "< 10 nM (active) and 9.31 nM (active)"}, {"measurement": "GI50", "setting": "SK-MEL-2", "result": "0.00957 µM (active)"}, {"measurement": "GI50", "setting": "HCC 2998", "result": "0.00887 µM (active)"}, {"measurement": "GI50", "setting": "SF-295", "result": "< 10 nM (active) and 10.8 nM (active)"}, {"measurement": "GI50", "setting": "SF-268", "result": "< 10 nM (active) and 9.29 nM (active)"}, {"measurement": "GI50", "setting": "RXF 393", "result": "< 10 nM (active) and 12.5 nM (active)"}, {"measurement": "GI50", "setting": "UACC-257", "result": "< 10 nM (active) and 12.8 nM (active)"}, {"measurement": "GI50", "setting": "KM12", "result": "0.00504 µM (active)"}, {"measurement": "GI50", "setting": "SNB-75", "result": "< 10 nM (active) and 7.11 nM (active)"}, {"measurement": "GI50", "setting": "SK-OV-3", "result": "0.0157 µM (active)"}, {"measurement": "GI50", "setting": "ACHN", "result": "0.00989 µM (active)"}, {"measurement": "GI50", "setting": "SK-MEL-28", "result": "< 10 nM (active) and 7.33 nM (active)"}, {"measurement": "GI50", "setting": "RPMI-8226", "result": "< 10 nM (active) and 9.95 nM (active)"}, {"measurement": "GI50", "setting": "CAKI-1", "result": "< 10 nM (active) and 17.3 nM (active)"}, {"measurement": "GI50", "setting": "HOP-92", "result": "< 10 nM (active) and 14.9 nM (active)"}, {"measurement": "GI50", "setting": "DU-145", "result": "0.00807 µM (active)"}, {"measurement": "GI50", "setting": "NCI-H226", "result": "< 10 nM (active) and 16.5 nM (active)"}, {"measurement": "GI50", "setting": "SW-620", "result": "< 10 nM (active) and 6.17 nM (active)"}, {"measurement": "GI50", "setting": "MDA-MB-435", "result": "< 10 nM (active) and 6.21 nM (active)"}, {"measurement": "GI50", "setting": "Malme-3M", "result": "< 10 nM (active) and 6.65 nM (active)"}, {"measurement": "GI50", "setting": "OVCAR-8", "result": "0.0127 µM (active)"}, {"measurement": "GI50", "setting": "T47D", "result": "0.00521 µM (active)"}, {"measurement": "GI50", "setting": "M14", "result": "< 10 nM (active) and 19.6 nM (active)"}, {"measurement": "GI50", "setting": "PC-3", "result": "0.0112 µM (active)"}, {"measurement": "GI50", "setting": "OVCAR-4", "result": "< 10 nM (active) and 6.64 nM (active)"}, {"measurement": "GI50", "setting": "Hs-578T", "result": "< 10 nM (active) and 7.24 nM (active)"}]}
